Laboratory results reported in patent US20260198495A1, “BINARY INSECTICIDE COMPOSITION AND USE THEREOF” (SHENYANG SINOCHEM AGROCHEMICALS R & D CO., LTD., priority 2022, published 2026).
Converted amounts (≈) assume the structure as drawn.

Legend:
Type in all cases: in vivo
[1] = test system: 2nd-instar nymphs of Frankliniella occidentalis Pergande; test: Joint toxicity of I-72 + carbosulfan, leaf spraying, Example 22, Table 22; conditions: in Phaseolus vulgaris, 48 h
Method: Test subject: 2nd-instar nymphs of Frankliniella occidentalis Pergande, a sensitive strain reared indoors.
Preparation of the pesticide solution: according to different test requirements, the test samples in Table 1 were accurately weighed respectively with an electronic analytical balance. The technical pesticides were dissolved in acetone, and then diluted with 0.1% Tween 80 water into a series of pesticide solutions with a certain concentration gradient according to the experimental design dosage.
Test conditions: temperature: 25-27° C., humidity: RH 60%, and illumination: L:D=14:10
Experimental method: the spraying method was adopted. The kidney bean leaves cultivated in the greenhouse were selected, and the petioles were wrapped with moist degreased cotton and sealing film. They were evenly sprayed with the pesticide solution in the order from low dosage to high dosage according to the experimental design, placed in a 6-cm-diameter Petri dish with filter paper. After natural air-drying in the shade, the test insects were introduced, with 20 insects for each treatment and 3 replicates. In addition, a blank control was set up. […] The corrected mortality rate was calculated using the Abbott's formula, and the DPS data processing software was used for statistical analysis to calculate the toxicities (LC50 values) of the single test pesticides and the mixtures under the test ratios. […]

adult Phyllotreta spp. = test: Joint toxicity of I-72 + organophosphorus insecticides, cabbage seedling spraying, Example 19, Table 19; conditions: 72 h
Method: Test target: adult Phyllotreta spp., a sensitive strain reared indoors.
(§1) Preparation of the pesticide solution: according to different test requirements, the test samples were accurately weighed respectively with an electronic analytical balance. The technical pesticides were dissolved in acetone, and then diluted with 0.1% Tween 80 water into a series of pesticide solutions with a certain concentration gradient according to the experimental design dosage.
Experimental method: first, fresh cabbage seedlings cultivated in the greenhouse were selected and evenly sprayed with the pesticide solution in the order from low dosage to high dosage according to the experimental design. After natural air-drying in the shade, they were covered with a glass cover, and uniform and healthy test insects were introduced, with 10 insects for each treatment and 3 replicates for each treatment. In addition, a blank control was set up.
(§2) The treated test materials were placed in an observation room, and the temperature, humidity and illumination of the observation room could be adjusted as needed. The number of dead and live insects was investigated 72 hours later. The corrected mortality rate was calculated using the Abbott's formula, and statistical analysis was performed with the DPS data processing software to obtain the toxicity regression equation, LC50 value and 95% confidence limit of each single test pesticide and each mixture of different ratios. Then, the co-toxicity coefficient of each ratio was calculated using the Sun Y-P method to evaluate the mixing effect (the same as in Example 1).

[2] = test system: Aphis gossypii Glover nymphs; test: Joint toxicity of I-72 + organophosphorus insecticides, cotton leaf spraying, Example 17, Table 17; conditions: 48 h
Method: (§3) Test target: Aphis gossypii Glover nymphs, a sensitive strain reared indoors.
as §1
Experimental method: first, cotton leaves with uniform and consistent Aphis gossypii were selected, with about 20 insects on each leaf. Then, they were evenly sprayed with the pesticide solution in the order from low dosage to high dosage according to the experimental design, with 1.5 mL for each leaf and 3 replicates for each treatment. In addition, a blank control was set up.
as §2, with “48” for “72”

[3] = test system: Bemisia tabaci (Gennadius) nymphs; test: Joint toxicity of I-72 + organophosphorus insecticides, cotton leaf-disk spraying, Example 18, Table 18; conditions: 96 h
Method: Test target: Bemisia tabaci (Gennadius) nymphs.
as §1
(§4) Experimental method: first, cotton leaves with neat and consistent Bemisia tabaci (Gennadius) nymphs were selected and made into leaf disks, with about 20 insects on each leaf disk. Then, they were evenly sprayed with the pesticide solution in the order from low dosage to high dosage according to the experimental design, with 1.5 mL for each leaf and 3 replicates for each treatment. In addition, a blank control was set up.
as §2, with “96” for “72”

[4] = test system: Frankliniella occidentalis Pergande; test: Joint toxicity of I-72 + organophosphorus insecticides, leaf dipping, Example 14, Table 14; conditions: in Phaseolus vulgaris, foliar, 48 h
Source text: Test target: Frankliniella occidentalis Pergande, a sensitive strain reared indoors.
Experimental method: first, kidney bean leaves were selected and dipped in the prepared pesticide solution for 10 s in the order from low dosage to high dosage according to the experimental design. After natural air-drying in the shade, they were placed in a 9-cm-diameter Petri dish with filter paper, and uniform and healthy test insects were introduced, with about 20 insects for each treatment and 3 replicates for each treatment. In addition, a blank control was set up.

[5] = test system: 3rd-instar larvae of Ostrinia furnacalis Guenee; test: Joint toxicity of I-72 + organophosphorus insecticides, corn stalk dipping, Example 21, Table 21; conditions: 48 h
Method: Test target: 3rd-instar larvae of Ostrinia furnacalis Guenee, a sensitive strain reared indoors.
as §1
Experimental method: first, fresh tender corn stalks cultivated in the greenhouse were selected, cut into small sections of 3 cm, and dipped in the prepared pesticide solution for 10 s in the order from low dosage to high dosage according to the experimental design. After natural air-drying in the shade, they were placed in a 9-cm-diameter Petri dish with filter paper, and uniform and healthy test insects were introduced, with 10 insects for each treatment and 3 replicates for each treatment. In addition, a blank control was set up.
as §2, with “48” for “72”

[6] = test system: 3rd-instar larvae of Chilo suppressalis (Walker); test: Joint toxicity of I-72 + organophosphorus insecticides, rice seedling dipping, Example 15, Table 15; conditions: 48 h
Method: Test target: 3rd-instar larvae of Chilo suppressalis (Walker), a sensitive strain reared indoors.
as §1
Experimental method: first, tender and fresh rice seedlings were selected and dipped in the prepared pesticide solution for 10 s in the order from low dosage to high dosage according to the experimental design. After natural air-drying in the shade, they were cut into small sections of 5 cm, placed in a 9-cm-diameter Petri dish with filter paper, and uniform and healthy test insects were introduced, with 10 insects for each treatment and 3 replicates for each treatment. In addition, a blank control was set up.
as §2, with “48” for “72”

[7] = test system: 3rd-instar larvae of Hyphantria cunea; test: Joint toxicity of I-72 + organophosphorus insecticides, poplar leaf dipping, Example 20, Table 20; conditions: foliar, 72 h
Source text: Test target: 3rd-instar larvae of Hyphantria cunea, a sensitive strain reared indoors.
Experimental method: first, fresh and tender poplar leaves were selected, cut into small sections of 5 cm, and dipped in the prepared pesticide solution for 10 s in the order from low dosage to high dosage according to the experimental design. After natural air-drying in the shade, they were placed in a 9-cm-diameter Petri dish with filter paper, and uniform and healthy test insects were introduced, with 10 insects for each treatment and 3 replicates for each treatment. In addition, a blank control was set up.

[8] = test system: 3rd-instar larvae of Plutella xylostella; test: Joint toxicity of I-72 + chlorpyrifos, leaf-disk dipping, Example 16, Table 16; conditions: in Brassica oleracea, 72 h
Method: Test target: 3rd-instar larvae of Plutella xylostella.
as §1
Experimental method: first, fresh cabbage leaves cultivated in the greenhouse were selected. The cabbage leaves were made into circular leaf disks with a diameter of 3 cm using a puncher and dipped in the prepared pesticide solution for 10 s in the order from low dosage to high dosage according to the experimental design. After natural air-drying in the shade, they were placed in a 9-cm-diameter Petri dish with filter paper, and uniform and healthy test insects were introduced, with 10 insects for each treatment and 3 replicates for each treatment. In addition, a blank control was set up.
The treated test materials were placed in an observation room, and the temperature, humidity and illumination of the observation room could be adjusted as needed. […] Then, the co-toxicity coefficient of each ratio was calculated using the Sun Y-P method to evaluate the mixing effect (the same as in Example 1).

Pyrrhalta aenescens = test: Joint toxicity of I-72 + fenobucarb, insect-dipping, Example 24, Table 24; conditions: 24 h
Method: Test target: Pyrrhalta aenescens, a strain reared indoors.
Experimental method: the insect-dipping method was adopted. Pyrrhalta aenescens of the same size were selected, put into an insect-dipping cage, and evenly […] the pesticide solution in the order from low dosage to high dosage according to the experimental design, with dipping for 10 s for each treatment. They were placed in a 9-cm-diameter Petri dish with filter paper. After natural air-drying in the shade, feed was added, with 3 replicates for each treatment. In addition, a blank control was set up.
The treated test materials were placed in an observation room. The total number of test insects and the number of dead insects were investigated 24 hours later. The temperature, humidity and illumination of the observation room could be adjusted as needed. The test conditions, the preparation of the pesticide solution and the evaluation method were the same as those in Example 1.

[9] = test system: second-instar larvae of Meloidogyne incognita; test: In vitro joint toxicity of I-72 + fluopyram, 24-well plate, Example 32, Table 32; conditions: 48 h
Method: Test target: second-instar larvae of Meloidogyne incognita, a sensitive strain reared in a greenhouse.
as §1
Experimental method: the prepared pesticide solutions were added to a 24-well plate in the order from low dosage to high dosage according to the experimental design. In each well of each treatment, 50 nematodes were placed. Each drug had 5 concentrations set, with 3 replicates. After the treatment, the 24-well plate was placed in a constant temperature incubator at 25° C. In addition, a blank control group was set up. The number of dead and live insects was investigated 48 hours later. […] Then, the co-toxicity coefficient of each ratio was calculated using the Sun Y-P method to evaluate the mixing effect (the same as in Example 1).

[10] = test system: adult Tetranychus cinnabarinus (Boisduval); test: Joint toxicity of I-72 + spirodiclofen, potted-seedling spraying, Example 25, Table 25; conditions: A = compound I-72, B = spirodiclofen, 72 hours
Method: Test target: adult Tetranychus cinnabarinus (Boisduval), a sensitive strain reared indoors.
as §1
Experimental method: the activity of the mixture against the adult Tetranychus cinnabarinus (Boisduval) was determined by adopting the potted-seedling spraying method. First, the adult Tetranychus cinnabarinus of uniform size were transferred onto the leaves of kidney bean seedlings at the stage when the first pair of true leaves was fully expanded. After the adult mites had stabilized, the base number was counted. Then, the uniform spraying was performed with the pesticide solution in the order from low to high dose according to the experimental design, with 1.5 mL for each seedling and 3 replicates for each treatment. […]
The treated test materials were placed in an observation room, and the temperature, humidity and illumination of the observation room could be adjusted as needed. […] Then, the co-toxicity coefficient of each ratio was calculated using the Sun Y-P method to evaluate the mixing effect, as in Example 1.

[11] = test system: Bemisia tabaci (Gennadius) nymphs; test: Joint toxicity of I-72 + spiromesifen, Example 27, Table 27; conditions: A = compound I-72, B = spiromesifen; cotton leaf-disk spraying; 96 hours
Method: Test target: Bemisia tabaci (Gennadius) nymphs, a sensitive strain reared indoors.
as §1, §4
The treated test materials were placed in an observation room, and the temperature, humidity and illumination of the observation room could be adjusted as needed. The number of dead and live insects was investigated 96 hours later. […] Then, the co-toxicity coefficient of each ratio was calculated using the Sun Y-P method to evaluate the mixing effect (the same as in Example 1).

[12] = test system: Aphis gossypii Glover nymphs; test: Joint toxicity of I-72 + spiropidion, Example 28, Table 28; conditions: A = compound I-72, B = spiropidion; cotton leaf spraying; 48 hours
Method: as §3, §1
Experimental method: first, cotton leaves with uniform and consistent Aphis gossypii were selected, with about 30-40 insects on each leaf. Then, they were evenly sprayed with the pesticide solution in the order from low dosage to high dosage according to the experimental design, with 1.5 mL for each leaf and 3 replicates for each treatment. In addition, a blank control was set up.
(§5) The treated test materials were placed in an observation room, and the temperature, humidity and illumination of the observation room could be adjusted as needed. The number of dead and live insects was investigated 48 hours later. […] Then, the co-toxicity coefficient of each ratio was calculated using the Sun Y-P method to evaluate the mixing effect (the same as in Example 1).

[13] = test system: 2nd-instar larvae of Plutella xylostella; test: Joint toxicity of I-72 + spiropidion, Example 31, Table 31; conditions: A = compound I-72, B = spiropidion; cabbage leaf dipping; 72 hours
Method: Test target: 2nd-instar larvae of Plutella xylostella.
as §1
Experimental method: first, cabbage leaves were selected and dipped in the prepared pesticide solution for 10 s in the order from low dosage to high dosage according to the experimental design. After natural air-drying in the shade, they were placed in a 9-cm-diameter Petri dish with filter paper, and uniform and healthy test insects were introduced, with 10 insects for each treatment and 3 replicates for each treatment. In addition, a blank control was set up.
The treated test materials were placed in an observation room, and the temperature, humidity and illumination of the observation room could be adjusted as needed. The number of dead and live insects was investigated 72 hours later. […] Then, the co-toxicity coefficient of each ratio was calculated using the Sun Y-P method to evaluate the mixing effect (the same as in Example 1).

[14] = test system: Thrips flavus Schrank nymphs; test: Joint toxicity of I-72 + spirotetramat, Example 26, Table 26; conditions: in Solanum melongena, 48 h
Method: Test target: Thrips flavus Schrank nymphs.
as §1
Experimental method: first, eggplant seedlings with Thrips flavus Schrank were selected, and the base number was counted. Then, uniform spraying was performed with the pesticide solution in the order from low to high doses according to the experimental design, with 2 mL for each seedling and 3 replicates for each treatment. In addition, a blank control was set up.
as §5

[15] = test system: Unaspis yanonensis Kuwana nymphs; test: whole plant or invertebrate; conditions: foliar, 120 h
Method: Test target: Unaspis yanonensis Kuwana nymphs.
as §1
Experimental method: the activity of the mixture against Unaspis yanonensis Kuwana nymphs on citrus was determined by adopting the dipping method. First, the collected citrus leaves with Unaspis yanonensis Kuwana nymphs were treated with the pesticide solution in the order from low dosage to high dosage according to the experimental design. After air-drying, the petioles were kept moist with degreased cotton, and then the leaves were placed in a Petri dish, with 3 replicates for each treatment. In addition, a blank control was set up.
The treated test materials were placed in an observation room, and the temperature, humidity and illumination of the observation room could be adjusted as needed. The number of dead and live insects was investigated 120 hours later.

[16] = test system: adult Tetranychus urticae Koch; test: Joint toxicity of I-72 + spirobudifen, Example 29, Table 29; conditions: 72 h
Method: as §1
In addition, a blank control was set up.
The treated test materials were placed in an observation room, and the temperature, humidity and illumination of the observation room could be adjusted as needed.

## CCCCN(CCCC)SN(C)C(=O)Oc1cccc2c1OC(C)(C)C2 [carbosulfan, reference compound]
[1]
  LC50: 43.2 µg/mL

## CCOP(=S)(OCC)Oc1nc(Cl)c(Cl)cc1Cl [chlorpyrifos]
Adult Phyllotreta spp.
  LC50: 40.4 µg/mL
[2]
  LC50: 4.16 µg/mL
[3]
  LC50: 12.1 µg/mL
[4]
  LC50: 4.6 µg/mL
[5]
  LC50: 5.18 µg/mL
[6]
  LC50: 1.96 µg/mL
[7]
  LC50: 5.24 µg/mL
[8]
  LC50: 13.7 µg/mL

## CCC(C)c1ccccc1OC(=O)NC (stereo not drawn) [fenobucarb]
Pyrrhalta aenescens
  LC50: 37.2 µg/mL

## O=C(NCCc1ncc(C(F)(F)F)cc1Cl)c1ccccc1C(F)(F)F [fluopyram]
[9]
  LC50: 0.609 µg/mL

## CCC(C)(C)C(=O)OC1=C(c2ccc(Cl)cc2Cl)C(=O)OC12CCCCC2 [spirodiclofen]
[10]
  LC50: 14.5033 µg/mL

## Cc1cc(C)c(C2=C(OC(=O)CC(C)(C)C)C3(CCCC3)OC2=O)c(C)c1 [spiromesifen]
[11]
  LC50: 10.6291 µg/mL

## CCOC(=O)OC1=C(c2c(C)cc(Cl)cc2C)C(=O)N(C)C12CCN(OC)CC2 [spiropidion]
[12]
  LC50: 4.8686 µg/mL
[13]
  LC50: 631.4873 µg/mL

## CCOC(=O)OC1=C(c2cc(C)ccc2C)C(=O)N[C@]12CC[C@@H](OC)CC2 [spirotetramat]
[14]
  LC50: 12.3 µg/mL
[15]
  LC50: 8.91 µg/mL (≈ 23.9 µM)
[16]
  LC50: 8.2 µg/mL
